Patent US10154983B2, “Neurodegenerative disorders and muscle diseases implicating PUFAs” (Retrotope, Inc., priority 2011, dated 2018)

Tests used:
[1] = Kinetics of the oxidation of mixtures of D2-LA and LA; format: physicochemical; details: data not shown
Protocol: FIG. 8. Dependence of the rate of oxidation of the mixture of LA and D2-LA in chlorobenzene solution on mixture composition. Conditions: [LA]+[11,11-d2-LA]=0.775 M; [AMVN]=0.0217 M; 37° C. RIN=(1.10±0.08)×10^−7 M/sec.
To simulate the likely in vivo conditions, the kinetics of the oxidation of the mixtures of D2-LA and LA were studied (FIG. 8). In the experiments, the concentration of LA plus 11,11-d2-LA was 0.775 M; the concentration of AMVN was 0.0217 M; and the reactions were carried out at 37° C. The results afforded an RIN of 1.10±0.08×10^−7 M/sec.

[2] = Kinetics of oxygen consumption during oxidation in chlorobenzene initiated by AMVN; format: physicochemical
Protocol: FIG. 7. Kinetics of O2 consumption accompanied the oxidation of 0.71 M LA (plots 1 and 2) and 0.71 M D2-LA (plot 3) in chlorobenzene initiated by 40 mM AMVN at 37° C. Plot 2—0.23 mM HPMC was added to 0.71 M LA.
The kinetics of oxygen consumption during the oxidation of LA and D2-LA was studied with a glass capillary microvolumeter (FIG. 7). The rate of oxidation, ROX, was measured as a slope of [O2] traces. The rate of initiation, RIN, was determined by the inhibitor method with HPMC (“6-hydroxy-2,2,5,7,8-pentamethylbenzochroman”) as a reference inhibitor. RIN was calculated from the induction period of inhibited oxidation, tIND: RIN=2·[HPMC]/tIND. […] When the process was inhibited by 0.23 mM chain-breaking antioxidant HPMC, the duration of the induction period, tIND, was about 48 min, with the RIN value of around 0.16×10^−6 M/s. […] The latter precludes a direct determination of RIN. […] An estimated kinetic isotope effect (“KIE”), from comparison of ROX for LA and D2-LA, was around 6.1×10^−6/0.18×10^−6≈35. A similar KIE was determined during the oxidation of LA and 11,11-d2-LA in Triton X-100 aqueous micelles (data not shown). For comparative purposes, the theoretical KIE is 6.9 at 25° C. See Carpenter, “Determination of Organic Reaction Mechanisms” (John Wiley & Sons, 1984), p. 89.

coq null mutants [3] = details: for viability of coq null mutants: 200 μM fatty acid, plate dilution assay
Protocol: FIG. 3. […] Yeast coq3, coq7 and coq9 null mutants were prepared in the W303 yeast genetic background (WT). Yeast strains were grown in YPD medium (1% Bacto-yeast extract, 2% Bacto-peptone, 2% dextrose) and harvested while in log phase growth (OD600 nm=0.1-1.0). Cells were washed twice with sterile water and resuspended in phosphate buffer (0.10 M sodium phosphate, pH 6.2, 0.2% dextrose) to an OD600 nm=0.2. Samples were removed and 1:5 serial dilutions starting at 0.20 OD/ml were plated on YPD plate medium, to provide a zero time untreated control (shown in top left panel). The designated fatty acids were added to 200 μM final concentration to 20 ml of yeast in phosphate buffer. At 2 h, 4 h, and 16 h samples were removed, 1:5 serial dilutions prepared, and spotted onto YPD plate medium. Pictures were taken after 2 days of growth at 30° C.
FIG. 4. […] The fatty acid sensitive assay was performed as described in FIG. 3, except that 100 μl aliquots were removed at 1, 2, and 4 h and, following dilution, spread onto YPD plates. Pictures were taken after 2 to 2.5 days, and the number of colonies counted.
Q-less yeast (coq mutants) provide an ideal system to assess in vivo autoxidation of fatty acids. Coenzyme Q (ubiquinone or Q) serves as a small lipophilic antioxidant as well as an electron shuttle in the respiratory chain of the mitochondrial inner membrane. Ten S. cerevisiae genes (COQ1-COQ10) are required for coenzyme Q biosynthesis and function, and the deletion of any results in respiratory deficiency (Tran U C, Clarke C F. Mitochondrion 2007; 7S,S62).
A plate dilution assay can be used to assess PUFA sensitivity. This assay can be performed by spotting serial five-fold dilutions of aliquots onto YPD plate media (FIG. 3). The sensitivity of the different strains can be observed by visual inspection of the density of cells in each spot.

Wild-type yeast = details: 200 μM fatty acid, 4 h incubation
Protocol: Uptake of exogenously supplied fatty acids by yeast. WT (W303) yeast were harvested at log phase and incubated in the presence of 200 μM of the designated fatty acid for either 0 or 4 h.
Wild-type yeast were harvested during log phase growth and incubated in the presence of exogenously added fatty acid (for 0 or 4 h) in the presence of phosphate buffer plus 0.20% dextrose, as described for the fatty acid sensitivity assay. Cells were harvested, washed twice with 10 ml sterile water, and the yeast cell pellets were then processed by alkaline methanolysis as described above. The fatty acids are detected as methylesters (FAMEs) following GC-MS with C17:0 added as an internal standard (FIG. 6). The amounts of 18:3 and D4 detected after 4 h incubation were extrapolated from the calibration curve.

coq null mutants [4] = details: four hour treatment; cited from earlier work
[5] = tested on: wild-type (strain W303-1B) cells; details: four hour treatment; cited from earlier work

| Compound | length of the kinetic chain v=ROX/RIN [2] | protection in the yeast model (coq null mutants [3]) | incorporation by yeast (Wild-type yeast) | viability of coq null mutants (coq null mutants [3]) | other results |
| --- | --- | --- | --- | --- | --- |
| [2H]C([2H])(/C=C\CCCCC)/C=C\CCCCCCCC(=O)O [D2-LA, 11,11-Dideutero-cis,cis-octadeca-9,12-dienoic acid] | ≈ 1.1 |  |  |  | effect on oxidation of mixture with non-deuterated methyl linoleate [1]: qualititatively similar effect; effect of addition of HPMC [2]: did not result in the decrease in ROX and the appearance of any detectable induction period |
| [2H]C([2H])(/C=C\CC)/C=C\CC/C=C\CCCCCCC(=O)O [14,14-D2-linolenic acid, 14,14-Dideutero-cis,cis,cis-octadeca-8,12,15-trienoic acid] |  | comparable protection |  |  |  |
| CC/C=C\C/C=C\C/C=C\CCCCCCCC(=O)O [linolenic acid, (9Z,12Z,15Z)-9,12,15-Octadecatrienoic acid, reference compound] |  |  | avidly incorporate | dramatic loss of viability | Q-less (coq2, coq3, and coq5) yeast mutants viable following treatment (coq null mutants [4]): Less than 1%; wild-type cells remaining viable [5]: 70% |
| [2H]C([2H])(/C=C\CC)/C=C\C([2H])([2H])/C=C\CCCCCCCC(=O)O [D4-linolenic acid, 11,11,14,14-Tetradeutero-cis,cis,cis-octadeca-8,12,15-trienoic acid] |  |  | avidly incorporate | not killed | viability of treated cells compared with oleic (coq null mutants [3]; quantitative colony counting): similar |
| CCCCC/C=C\C/C=C\CCCCCCCC(=O)O [LA, (9Z,12Z)-9,12-Octadecadienoic acid, reference compound] | 38±3 |  |  |  |  |
| [2H]C([2H])(/C=C\C/C=C\CC)C/C=C\CCCCCCC(=O)O [11,11-D2-linolenic acid, 11,11-Dideutero-cis,cis,cis-octadeca-8,12,15-trienoic acid] |  | comparable protection |  |  |  |
